Test results taken from patent US11912788B2, “Probiotic molecules for reducing pathogen virulence” (priority 2017, dated 2024).

Assays:
HilA = assay: qPCR of HilA down-regulation in Salmonella, reference gene 16S; format: cell-based, Salmonella enteric typhimurium DT104; details: individual synthetic biopeptides, 50 μg per assay
Source text: The cell-free supernatant was separated using Sephadex G75 resin. The samples were separated and collected into fractions: Fraction 1 (>163000 Da), Fraction 2 (163000-14500 Da), Fraction 3(14500-1300 Da), Fraction 4 (1300-110 Da), Fraction 5 (110-10 Da). The samples were collected and assayed by qPCR using Salmonella enteric typhimurium DT104 strain. The down-regulation of HilA was compared to the reference gene 16S.
The active fraction from G75 size exclusion chromatography was further separated using reverse phase chromatography. The fractions from the reverse phase: Fraction 1 (0-2 min), Fraction 2 (2-4 min), Fraction 3 (4-16 min), Fraction 4 (16-32 min), Fraction 5 (32-40 min), Fraction 6 (40-58 min). The fractions were dried and neutralized to remove acetonitrile and trifluoroacetic acid from the solvent. The dried fractions were assayed using the same qPCR assay conditions as above. The fractions were analyzed by de novo sequencing at the University of Guelph Advance Analytical center. The peptides from the active fractions of 6 batches were compared and common peptides from batches were deduced.

HylA = details: individual synthetic biopeptides, 50 μg per assay; reference gene GapA
Experimental: The La-5 cell-free supernatant used for these experiments was batch D4. […] Strain 1 alias UPEC99 and strain 2 alias UPEC804. The strains were cultured on LB agar. Two different media were tested LB and artificial urine medium.
The UPEC were grown for 4 hours in the presence of cell-free supernatant. The cells were harvested and the RNA was extracted. The RNA was treated with DNAse I to remove genomic DNA. The RNA was used as a template to make cDNA. The cDNA was assayed by qPCR and the gene expression was normalized to a reference gene and compared to a without cell-free media control.
The synthetic bio-peptides were analyzed at 50 μg per assay.

[1] = system: Staphylococcus aureus (strain alias LA-414M SPA t034); assay: Cefoxitin MIC testing with and without cell-free supernatant; format: cell-based; details: MRSA LA 414M, 0 mg/mL dried cell-free (cefoxitin only)
Source text: (§1) Three methicillin resistant Staphylococci (MRS) strains were used in these experiments: 1) Staphylococcus pseudintermedius (strain alias C260 22-2011 dtqa), a clinical isolate from a dog skin infection; 2) Staphylococcus aureus (strain alias LA-414M SPA t034), a livestock-associated strain isolated from beef purchased from a grocery store in Charlottetown, PEI, Canada; and 3) Staphylococcus aureus (strain alias 81M SPA t008), isolated from poultry meat purchased from a grocery store in Charlottetown, PEI, Canada. All three MRS strains were provided by the Atlantic Veterinary College (AVC) at the University of Prince Edward Island. The methicillin-resistance of these strains was confirmed by AVC staff using an oxacillin disk diffusion method. The strains were originally cultured on sheep blood agar slants, and then transferred to lysogeny broth agar plates. Cefoxitin resuspended in methanol was used for antibiotic resistance testing, and growth was tested in two different media types, standard Lysogeny Broth and standard BBL™ Cation-Adjusted Mueller-Hinton Medium (Becton, Dickinson and Company). The minimum inhibitory concentrations (MICs) of the cefoxitin was determined for each strain in each respective medium in the presence and absence of the cell-free supernatant. Assays were performed according to the Clinical and Laboratory Standards Institute (CLSI) guidelines for MIC testing of Staphylococcal species [CLSI, 2015] as well as the European Committee for Antimicrobial Susceptibility Testing (EUCAST) of the European Society of Clinical Microbiology and Infectious Diseases [EUCAST, 2003].
(§2) The protocol for MIC testing was as follows. The cell-free supernatants were resuspended in the respective media and filter sterilized through a […] pore size filter. The required concentration of dried cell free supernatant was weighed and added at concentrations ranging from 0-60 mg/mL. Cefoxitin was added to obtain final concentrations ranging from 0-250 μg/mL. […] Following incubation, microplates were read at 600 nm using a microplate reader. […]

[2] = system: Staphylococcus pseudintermedius (strain alias C260 22-2011 dtqa); assay: as above; format: cell-based; details: MSRP C260; Lysogeny Broth; 0 mg/mL dried cell-free (cefoxitin only)
Source text: as §1, §2

[3] = system: Staphylococcus aureus (strain alias 81M SPA t008); assay: Cefoxitin MIC testing with and without cell-free supernatant or its size exclusion fractions; format: cell-based
Source text: as §1, §2

| Molecule | Fold down-regulation HilA (HilA) [Fold] | Fold down-regulation HylA (HylA) [Fold] | also measured |
| --- | --- | --- | --- |
| YPVEPF | 0.68 | 1.03 |  |
| LKPTPEGD | 11.08 | 4.69 |  |
| HLLPLP | 2.93 | 2.64 |  |
| YPPGGP | 2.93 | 3.56 |  |
| CO[C@@]1(NC(=O)Cc2cccs2)C(=O)N2C(C(=O)O)=C(COC(N)=O)CS[C@@H]21 [Cefoxitin] |  |  | Range of Cefoxitin concentration to inhibition growth to O.D. < 0.1 (cefoxitin MIC) ([1]; Lysogeny Broth): 30 to 40 µg/mL; Range of Cefoxitin concentration to inhibition growth to O.D. < 0.1 (cefoxitin MIC) ([1]; Mueller-Hinton Broth): 50 to 60 µg/mL; Range of Cefoxitin concentration to inhibition growth to O.D. < 0.1 (cefoxitin MIC) [2]: 125 to 175 µg/mL; Range of Cefoxitin concentration to inhibition growth to O.D. < 0.1 (cefoxitin MIC) ([3]; MRSA 81M, Lysogeny Broth, 0 mg/mL dried cell-free (cefoxitin only)): 75 to 125 µg/mL; Range of Cefoxitin concentration to inhibition growth to O.D. < 0.1 (cefoxitin MIC) ([3]; MRSA 81M, Mueller-Hinton Broth, 0 mg/mL dried cell-free (cefoxitin only)): 75 to 100 µg/mL; Range of Cefoxitin concentration to inhibition growth to O.D. < 0.1 (cefoxitin MIC) ([3]; Table 4, Staphylococcus aureus 81M, Untreated (0 mg/mL), cefoxitin only): 60 to 75 µg/mL |
| CVLPPK | 3.75 | 3.20 |  |
| MALPPK | 19.56 | 9.06 |  |
